The text below walks through data of patent US12691124B2, “Methods of controlling and improving brain health” (ICAHN SCHOOL OF MEDICINE AT MOUNT SINAI, priority 2019, dated 2026).

In assay [1] the test system is primary cortical neurons. The experiment in a line: Polar metabolite mass spectrometry in primary cortical neurons. To be noted: acute exposure 24 h, 50 nM. In kind it is cell-based, mouse. As to the method:
Mass Spectrometry. Cell culture plates (2e6 cells per well n=7-8 per group) were washed with 75 mM Ammonium bicarbonate, pH 7.4, warmed to 37 degrees. Plates were quenched on liquid nitrogen for 10 seconds and then placed on dry ice. 1 ml of 70% Ethanol in MS-grade water was warmed to 75 degrees and added to each well. Plates were incubated in a 75 degree water bath for 3 minutes, shaking gently every minute. After 3 minutes, plates were placed on dry ice and once cooled, supernatants were lyophilized using the speed vacuum and stored at −80 degrees. Samples were shipped on dry ice to Cellzome who processed the samples for mass spectrometry and performed the initial analysis annotating metabolites. A semi-quantitative approach was used which determines the metabolite levels relative to a control rather than absolute concentrations. All detected ions were used for statistical analysis regardless of how many samples they were detected. This allows for the identification of low-abundant metabolites that may be present in only a subset of samples.
If IBET858 is indeed decreasing metabolism as indicated, comprehensive metabolic changes after BET inhibition should be observed. Therefore, an unbiased analysis of polar metabolites via mass spectrometry was employed (FIGS. 12A-12C). Accordingly, the levels of 100-150 unique metabolites are changed by chronic BET inhibition in primary cortical neurons.

The test system of assay [2] is BET proteins. The following applies: cited from earlier work.
The subject of assay [3] is 3xTg mouse model. To be noted: prolonged JQ1 treatment; cited from earlier work.
In assay [4] the test system is wild type and APP/PS1-21 mice. To be noted: cited from earlier work.
The subject of assay [5] is primary cortical neurons. Briefly: Neuronal longevity in primary cortical neuron culture (LDH, propidium iodide, cleaved caspase 3). In kind it is cell-based, mouse. To be noted: PLX5622 together with IBET858. The source says: Primary Cortical Neuron Culture. Embryonic day 18 (E18) timed-pregnant female mice were anesthetized with CO2 and sacrificed by cervical dislocation. In a dissection hood, 24-26 embryos per experiment were collected through an incision of the mother's abdomen, taken out of the amniotic sacs and decapitated in ice cold Hank's Balanced Salt Solution (HBSS). Using fine scissors and forceps, brains were rapidly dissected and the cortex cleared from meninges and isolated under a dissection microscope. Cortices were collected in ice cold HBSS and kept on ice until all embryos had been dissected. In a tissue culture hood, HBSS was removed and the cortex tissue digested by 0.25% Trypsin-EDTA for 12 minutes at 37° C., followed by DNase1 treatment for 10 minutes at 37° C. The tissue was dissociated by serial trituration with a 25 ml serological pipette, followed by trituration with 10 ml and 5 ml serological pipettes. Cell suspension was washed once with DMEM medium, supplemented with 10% FBS and 1% penicillin/streptomycin and passed through a […] cell strainer before counted on a hemocytometer. Single cells were seeded on poly-D-lysine (0.1 mg ml-1) coated wells at a density of 1×10^6 cells per well on a 12-well plate. Cells were grown in Neurobasal medium, complemented with B27 supplement, N2 supplement, and 0.5 mM L-glutamine and maintained at 37° C. in 5% CO2 for 1 week. Cultures were treated with DMSO (0.2%), I-BET858 (1 μM, 0.2% DMSO), BDNF (50 ng/ml), or BDNF+I-BET858 for 2 and 12 h on day 7 in vitro. Cultures were washed with phosphate-buffered saline (PBS) on ice and processed for RNA isolation using TRIzol/Chloroform extraction.
LDH Assay. LDH activity was measured using the Pierce LDH Cytotoxicity Assay Kit. Culture media was incubated with an equal volume of LDH master mix and incubated for 30 minutes at room temperature in the dark. After, the same volume of stop reagent was added and the absorbance was measured at 490 and 680 nm. Maximum LDH measurements were obtained by adding lysis buffer to release the total amount of LDH in the sample. LDH release is calculated as a percent of the maximum.
Propidium Iodide Assay. Propidium iodide (1 mg/ml, Life Technologies #P3566) was added to each culture well at a final concentration of 0.5 μg/ml. Cultures were incubated for 30 minutes at 37 degrees then washed with PBS. Cells were then fixed with 4% paraformaldehyde in PBS for 15 minutes at room temperature. After fixation, cells were washed with PBS and then mounted using mounting media containing DAPI.
In order to understand the effect of chronic BET inhibition on neuronal survival, primary cortical mouse neurons were cultured in the presence or absence of the brain permeable BET inhibitor IBET858 (1 μM). To quantify cell death over time, the levels of lactate dehydrogenase (LDH) were measured in culture media which is presumably released during cell death as the membranes become permeable. […] The observed decrease in LDH activity after BET inhibition occurs in a dose-dependent manner. LDH activity, which is an indirect measure of cell death, may be affected by other factors such as changes in metabolism or expression of the LDH genes. Therefore in order to confirm these findings, propidium iodide (PI) staining was used to directly quantify the number of dead neurons over time. This membrane impermeable dye increases in fluorescence 20-30 fold after intercalating DNA265. […] To give context to the magnitude of this effect on survival, this experiment was repeated with a direct comparison to the mTOR inhibitor, rapamycin (20 nM).

Assay [6] relates to microglia. The experiment in a line: Microglia depletion by PLX in wild type mice. To be noted: mouse, in vivo. The source says:
These models both have strong inflammatory components to their pathology; however it is important to understand the mechanism by which IBET858 improves symptoms. If the pathology is driven by microglial-mediated inflammation, it was hypothesized that depleting microglia from the brain should prevent neuronal degeneration and memory deficits as well. Therefore a pharmacological approach was used to deplete microglia in vivo by inhibiting the colony stimulating factor receptor 1 (CSF1R) which is required for microglial survival and kills 99% of microglia in one week in wild type mice. Elmore et al., “Colony-Stimulating Factor 1 Receptor Signaling is Necessary for Microglia Viability, Unmasking a Microglia Progenitor Cell in the Adult Brain,” Neuron 82:380-397 (2014), which is hereby incorporated by reference in its entirety.
First, the PLX5622-mediated mediated reduction in microglia numbers is not sufficient to reduce inflammatory gene expression to the level that not only allows neuronal survival but also normal function. Second, while IBET858 clearly dampens microglia-mediated inflammation, its neuroprotective effect cannot be solely attributed to microglia and may in fact be a combinatorial effect on other cell types in the brain.

The subject of assay [7] is CK-p25 mice. The experiment in a line: p25 (CK-p25) mouse model of Alzheimer's disease. Format: in vivo.

Regarding `C=C(C)[C@H]1Cc2c(ccc3c2O[C@@H]2COc4cc(OC)c(OC)cc4[C@@H]2C3=O)O1` [Rotenone, reference compound], the metabolites changed in assay [1] is 300-500 metabolites.
For the compound `Oc1ccc(C=Cc2cc(O)cc(O)c2)cc1` [Resveratrol, resveratrol], the “inhibition of BET proteins” value in assay [2] was “weakly inhibit”.
Take `Cc1sc2c(c1C)C(c1ccc(Cl)cc1)=N[C@@H](CC(=O)OC(C)(C)C)c1nnc(C)n1-2` [JQ1]: in assay [3], the “level of phosphorylated tau” value was “decreased”; the “memory and learning deficits” value was “did not have any effect”. Also, the “cognitive deficits in APP/PS1-21 mouse model” value in assay [4] (APP/PS1-21) was “rescued cognitive deficits”. Moreover, the “memory, fear conditioning paradigm in wild type mice” value in assay [4] (wild type mice) is listed as “enhanced memory”.
On to `COc1ncc(F)cc1CNc1ccc(Cc2c[nH]c3ncc(C)cc23)c(F)n1` [PLX5622], for which the “neuronal longevity after IBET858 on pharmacological depletion of microglia” value in assay [5] was “did not alter longevity”. Moreover, in assay [6], the “microglia after PLX in wild type mice” value was “fully depleted”. For the same compound, the “number of microglia compared to wild-type controls” value in assay [7] (CK-p25 mice treated with PLX) is listed as “twice the number of microglia”. Besides, in assay [7] (PLX5622), the “contextual recall (memory deficits)” value was “made contextual recall worse”; the “neuronal and synapse loss” value was “prevented neuronal and synapse loss”.
